# Patent US9205135B2, “Podocyte pH modulation and uses thereof” (University of Miami, priority 2009, dated 2015)
# Legend:
# [1] = system: NIH 3T3; assay: Glutamine uptake rate in NIH 3T3 cells; format: cell-based
# Experimental: (§1) All together, these experiments discovered a uniform metabolic response for podocytes that are injured.
# (§2) Cells, antibodies, and standard techniques: Mouse podocyte cell lines (15) and HEK 293 cells (6) were grown as described previously. NIH 3T3 cells were cultured in Dulbecco's modified Eagle's minimal essential medium (Invitrogen, Carlsbad, Calif.) supplemented with 10% fetal calf serum (Invitrogen) and incubated in a humidified atmosphere of 95% air and 5% CO2 at 37° C. Antibody used for immunostaining are Alexa Fluor 594 phalloidin (Molecular Probes, Eugene, Oreg.). Subcellular fractionation was performed as described previously (6).
# [2] = system: SNAT3; assay: RT-PCR expression of SNAT glutamine transporters in cultured podocytes; format: cell-based, mouse
# Experimental: In brief, total RNA from cultured mouse podocytes was isolated with RNA isolation kit (Qiagen, Germantown, Md.) and the amount of RNA was measured by spectrophotometry. Purified RNA was reverse transcribed and PCR performed using PCR Mastercycler (Eppendorf, Westbury, N.Y.).
# (§3) RT-PCR: We isolated total RNA from murine cultured podocytes and mouse glomeruli using the Trizol reagent (Invitrogen) according to the manufacturer's instructions. cDNA synthesis was performed with SuperScript II Reverse Transcriptase (Invitrogen) using Oligo(dT)12-18 oligonucleotide primers according to the manufacturer's instructions. All samples were run in duplicates.
# [3] = system: cathepsin L; assay: Cathepsin L activity in cultured podocytes, CV-(FR)2 substrate; format: cell-based, mouse; conditions: effect of the injury stimulus itself
# Experimental: Subcellular sites of cathepsin L and cathepsin B activity in glomerular extracts were visualized by a fluorogenic substrate, CV-(FR)2, which emits light upon cleavage by cathepsin L or cathepsin B (Biomol).
# Measurement of cathepsin L activity: Cathepsin L activities in cultured podocytes and in glomeruli was measured using CV-CatL detection kit (Biomol, Plymouth Meeting, Pa.) as described in the manufacturer's instructions. The fluorophore cresyl violet [CV-(FR)2] substrate becomes florescent after Cat L cleavage of the attached Phe-Arg groups. This substrate easily penetrates the cell membrane and the membranes of the internal cellular organelles, enabling the detection of cathepsin activity within living podocytes.
# [4] = system: HEK293; assay: Glutamine uptake rate in HEK293 cells; format: cell-based
# Experimental: as §1, §2
# [5] = system: SNAT3; assay: RT-PCR expression of SNAT glutamine transporters in mouse glomeruli; format: in vivo; conditions: glomeruli of mice stimulated with LPS
# Description: Podocytes induce expression of SNAT glutamine transporters during injury: Having identified increased glutamine uptake and utilization as a signature for diseased podocytes that varies from other non-differentiated eukaryotic cells (FIG. 7), we studied the expression of the expression of system A (SNAT1, 2, 4) and system N(SNAT3, 5, 6) family members of sodium-coupled neutral amino acid transporters in cultured podocytes (FIG. 2a). Glutamine is known to be a favored substrate throughout the family, except for SNAT4 (21). We also studied these transporters in isolated mouse glomeruli (FIG. 2a). All SNATs were expressed besides SNAT5, 3 and 4 were only found at low levels. […] SNAT3, formerly known as SN1 (Slc38a3), is known as an antiporter that function in the presence of Na+ and takes up glutamine for the exchange of H+. It is highly expressed on the mRNA and protein level in the kidney during metabolic acidosis and involved in the regulation of acid-base homeostasis (22-24).
# as §3
# [6] = system: podocytes; assay: Glutamine uptake rate in cultured podocytes; format: cell-based, mouse; conditions: injury stimulus
# Description: A podocyte metabolic model was constructed based on available databases as well as mRNA and protein expression data extracted from podocytes. The following podocyte culture models were employed: wildtype (control), LPS and PAN stimulated podocytes (inducible injury models) as well as podocytes with genetic deletion of the alpha3 gene (genetic disease model). All injury cultures increase the uptake of glutamine as well as gluconeogenic aminoacids. In addition, there is increasing ammonia production in diseased podocytes. These changes were predicted by the podocyte metabolic model and confirmed by measuring directly amino acids and ammonia (FIGS. 1A-1D).
# Metabolic Flux Analysis emphasizes glutamine utilization pathways for podocyte function: We utilized cultured normal podocytes (control) (15) and three in vitro models for podocyte damage: i) podocytes with α3 integrin deletion (genetic model) (16); ii) podocytes treated with lipopolysaccharides (LPS, immunological model) (17); and iii) podocytes treated with puromycin aminonucleoside (PAN, toxic model) (18). […] Using the podocyte MFA network, we were able to extract podocyte aminoacid and glucose utilization (FIG. 10b-d) that was also independently measured in direct validation studies (data not shown). All analyzed modeling and experimentation data supported the notion that the aminoacid metabolism of podocytes is changed in disease. […]
# [7] = system: podocytes; assay: Intracellular pH of podocytes by phosphorus NMR; format: cell-based, mouse; conditions: after 24 hours of LPS exposure; 7.0 under normal conditions
# Experimental: Another example is using phosphorus NMR spectra for untreated and LPS-treated podocytes. Briefly, podocytes are cultured and treated with LPS. 8×10^7 to 1×10^8 cells are harvested and cultured in phosphate-free medium prior to assay. Phosphorous NMR spectra are acquired and analyzed using an iNMR software package. Intracellular pH (pHi) is calculated from the chemical shift difference (d) between the intracellular inorganic phosphate peak (Pi) and the primary phosphate of nucleoside phosphates (Pa) using equation 1.
# Measurement of intracellular pH by NMR: Eighty to hundred million podocyte cells were harvested and resuspended in 2-2.5 mL of phosphate-free RPMI medium (MP Biomedicals, Solon, Ohio) with 2.0 mM glutamine (Invitrogen) prior to assay. Phosphorous NMR spectra were acquired on a 14 Tesla Bruker Avance NMR spectrometer (Bruker BioSpin, Billerica, Mass.) with a 10 mm broadband observe (BBO) NMR probe. Cell suspensions were placed in 10 mm (OD) glass NMR tubes (Wilmad LabGlass, Buena, N.J.). Samples were maintained at a temperature of 37° C. […] Spectra were analyzed using the iNMR software package (Mestrelab Research, Spain). Intracellular pH (pHi) was calculated from the chemical shift difference (d) between the intracellular inorganic phosphate peak (Pi) and the primary phosphate of nucleoside phosphates (Pa) using Eq. 1: […]
substance,measurement,setting,value
lipopolysaccharides [LPS],glutamine uptake rate,[1],did not respond
same,SNAT3 mRNA expression,[2],prominent induction
same,cathepsin L activity in podocytes,[3],stimulate
same,glutamine uptake rate,[4],did not respond
same,SNAT3 mRNA expression,[5],increased markedly
same,glutamine uptake rate,[6],stimulated
same,podocyte cytosolic pH (NMR),[7],6.9
